{
  "source": "patent US5200396A",
  "about": "“Method of treating neurodegenerative disorders using epidermal growth factor” (Zambon Group S.p.A., priority 1990, dated 1993)",
  "origin": "cited, not measured here",
  "test_system": "rats with lesion of the nigrostriatal pathway",
  "details": "lesion of the nigrostriatal pathway model; Brain Research, 459, 398, (1988)",
  "data": [
    {"substance": "NGF: growth factor acting as trophic factor towards some neuronal types", "values": [
      {"measurement": "efficacy in changing the rotational behaviour of the animal", "result": "did not show, in practice, any efficacy"}
    ]}
  ]
}
